Experimental data taken from publication PMC11732138, “Gold complex compounds that inhibit drug-resistant Staphylococcus aureus by targeting thioredoxin reductase” (Frontiers in Antibiotics, 2023).
Read-outs that look alike come from different tables or passages of the source.

Assays:
[1] = system: HepG2 cells; assay: Immortalized cell line toxicity (WST-1), HepG2; type: cell-based, human; conditions: HepG2 liver cell line, 24 h
Experimental: (§1) A hepatic cell line (HepG2), lung carcinoma cell line (A549), and kidney cell line (HKC) were used to test the cytotoxicity of investigational compounds. Cells were grown in DMEM (ThermoFisher Scientific, Waltham, MA, USA) supplemented with 10% fetal bovine serum (FBS) (ThermoFisher Scientific, Waltham, MA, USA) and 1% penicillin/streptomycin (ThermoFisher Scientific, Waltham, MA, USA) and maintained at 37°C in 5% CO2. 2.5x10^4 cells in 100 μL of DMEM with 10% FBS were added to wells of 96-well plates 24 h prior to the experiments. Compounds were serially diluted in […], and 100 μL antibiotic-free DMEM was added to the monolayer and incubated at 37°C in 5% CO2 for 24 h. At 2 h before the end of the incubation period, 10 μL of 2-(4-iodophenyl)-3-(4-nitrophenyl)-5-(2, 4-disulfophenyl)-2H-tetrazolium (WST-1) solution (Roche, Mannheim, Germany) was added to each well. WST-1 reduction was monitored at 450 nm using a Vmax microplate reader. Assays were performed in triplicate, and the percentage survival was calculated by comparing the compound-treated wells to the DMSO vehicle control wells.

[2] = system: renal proximal tubule epithelial cells; assay: Renal proximal tubule epithelial cell toxicity; type: cell-based, human; conditions: renal proximal tubule epithelial cells
[3] = Compound solubility in DMSO; type: physicochemical; conditions: organic solvent or mixture, turbidity at 540 nm, read-out: concentration up to which the compound remained soluble in DMSO
Experimental: To test compound solubility, stock solutions were made in triplicate at 50 mg/mL in DMSO. Two-fold serial dilutions of the test compounds were prepared at 50 μL volume in a 96-well assay plate and were kept in the incubator for 1 h. After incubation, the absorbance was measured at 540 nm using a Vmax microplate reader (Molecular Devices, Sunnyvale, CA, USA.) to detect turbidity.

[4] = system: human primary hepatocytes; assay: Human primary hepatocytes toxicity; type: cell-based; conditions: 24 h, WST1
Experimental: Human primary hepatocytes toxicity. Cryopreserved human primary hepatocytes were purchased from the Cell Resource Core at Massachusetts General Hospital (Boston, MA, USA). Collagen sandwiched configuration was used to culture the thawed cells in 24-well plates. The 24-well plates were coated with rat tail collagen type I (Cell Recourse Core, MGH) and incubated for an hour before 4 x 10^5 live cells were plated and incubated at 37°C with 5% CO2 for 1 h to allow cells to attach to the collagen gel. After incubation, the medium was removed along with dead cells, and the remaining cells received 0.5 mL of hepatocyte culture medium containing Dulbecco’s modified Eagle’s medium (DMEM) media supplemented with 10% FBS, 0.5 U/mL insulin, 14 ng/mL glucagon, 20 ng/mL EGF, 7.5 µg/mL hydrocortisone and 200 U/mL penicillin-streptomycin. The cell cultures were incubated in a humidified, 5% CO2 incubator at 37°C. After 24 h, a top layer of collagen gel was poured over the hepatocytes attached to collagen on the bottom of the plate, making a sandwich model. After 1 h, investigational compounds at the designated concentrations were added and incubated for 24 h. Post incubation, hepatocyte WST1 (Roche, Basel, Switzerland) was added and incubated for 4 h. Cell staining was measured by recording the absorbance at 420 nm, measured using a Vmax microplate reader (Molecular Devices, San Jose, CA, USA.), and data were plotted using GraphPad Prism. Cells were tested in triplicate.

[5] = system: HKC cells; assay: Immortalized cell line toxicity (WST-1), HKC; type: cell-based, human; conditions: HKC kidney cell line, 24 h
Experimental: as §1

[6] = system: A549 cells; assay: Immortalized cell line toxicity (WST-1), A549; type: cell-based, human; conditions: A549 lung carcinoma cell line, 24 h
Experimental: as §1

[7] = Compound solubility in PBS; type: physicochemical; conditions: aqueous buffer
Experimental: Compound solubility in PBS. Compound solubility was measured in PBS. Briefly, serial dilutions of test compounds were prepared in DMSO at 100x the final concentration. Test compound solutions were diluted 100-fold into PBS in a 96-well plate and mixed. After 2 h, the presence of precipitate was detected by measuring absorbance at 540 nm.

[8] = Immortalized cell line toxicity (WST-1), the three cell lines together; type: cell-based; conditions: human, hkc, hepg2, a549 cells; read-out: toxicity to cell lines as multiple of the MIC
Experimental: as §1

[9] = system: human erythrocytes; conditions: tested range 256 to 0.125 μg/mL
Experimental: The plate was incubated for 1h at 37°C. After incubation, the plate was centrifuged at 1000 g for 5 min. Then, 100 µL of supernatant was transferred to a fresh 96-well microtiter well plate and the OD was measured at 540 nm. The assay was conducted in triplicate and the mean and SD values were reported.

[10] = system: S. aureus MW2; assay: Time to kill assay; type: cell-based, Staphylococcus aureus; conditions: 4 × MIC, 4 h; bactericidal = 3-log10-CFU/mL reduction
Experimental: S. aureus MW2, a methicillin-resistant S. aureus (MRSA) isolate, was used to determine the bacteriostatic/bactericidal properties of test compounds, as previously described ([Rajamuthiah et al., 2015]). Assays were carried out as 2 biological replicates with n=3 for each in 24 well plates (BD Biosciences, Franklin Lakes, NJ, USA). Briefly, S. aureus MW2 cells were streaked on TSB agar from a frozen glycerol stock, and after overnight incubation, a single colony was inoculated on 2 mL of TSB and incubated at 37°C with agitation. The overnight culture of S. aureus MW2 was centrifuged at 4000 g for 5 min and then washed twice with PBS and collected through centrifuged at 4000 g for 5 min. The PBS was discarded and cells were suspended in TSB and aliquoted into a 24-well plate at a density of 10^8 cells/mL as a 1 mL volume. Test compounds were added such that the final concentration was 4 × MIC, and the cultures were incubated at 37°C with agitation. At designated time intervals, 5 μL aliquots from each test condition were serially diluted in TSB and plated onto TSA (BD Biosciences, Franklin Lakes, NJ, USA). CFUs were enumerated after overnight incubation at 35°C, and data were plotted using GraphPad Prism 9.0 (San Diego, CA, USA) to report the means and standard deviation of growth as measured by CFU/mL.

[11] = molecular target: S. aureus TrxR (Staphylococcus aureus, UniProt P66011); assay: TrxR (TrxB) enzymatic assay, DTNB to TNB conversion
Experimental: TrxR specific inhibitory activity was evaluated using 40 μL of S. aureus TrxR enzyme (0.5 μg/μL) per 200 mL of the reaction mixture for 15 minutes, comparing auranofin to other sulfur-containing compounds (all tested at 10 μg/mL), including known anti-S. aureus compounds.
For the screening assay, diluted TrxR assay buffer (Cayman Chemical, Ann Arbor, MI) (100 μL) was mixed with the investigational compounds (20 μL) in a 96 well-plate format and combined with Sa-TrxB (40 μL; 0.5 μg/mL), DTNB (20 μL) and NADPH (20 μL). The reaction entailed combining NADPH and Sa-TrxB with DTNB, which was converted to TNB, producing a yellow color.

[12] = molecular target: T1, hERG channel (Homo sapiens, UniProt Q12809); assay: hERG measurement (QPatch HTX patch clamp)
From the text: (§4) QPatch HTX system (Sophion Biosciences A/S, Ballerup, Denmark) was used to examine hERG signaling (Cyprotex, Watertown, MA, USA). The system was primed with appropriate extracellular (NaCl, KCl, CaCl2, MgCl2, D-glucose, HEPES, pH 7.4) and intracellular (KCl, MgCl2, EGTA, MgATP, HEPES, pH 7.2) solutions before conducting the study in a 48 well plate (QPlate, Sophion Biosciences A/S, Ballerup, Denmark). All cell suspensions, buffers, and test compound solutions were kept at room temperature during the experiment. HEK293 cells stably transfected with hERG cDNA were washed and positioned into each well (recording chamber) of the QPlate. The QPatch system follows the general principles of conventional whole-cell patch-clamping: a high resistance seal is formed between the patch electrode, and an individual cell, the membrane across the electrode tip is then ruptured, and the whole-cell patch-clamp configuration is established. The standard voltage profile was as follows: step from -80 mV to –50 mV for 200 ms, +20 mV for 4.8 s, step to -50 mV for 5 s, then stepped to the holding potential of -80 mV. The step from -80 mV to the test command (+20 mV) results in an outward current (i.e., current flows out of the cell), and the step from the test command (+20 mV) to -50 mV results in the tail current (the tail current represents deactivation of the current overtime). Compound dilutions were prepared by diluting a DMSO solution (default 10 mM), followed by dilution into an extracellular buffer such that the final concentrations tested were 0.1, 1, and 10 μM (final DMSO concentration 0.1%). Perfusion solutions contained 0.05% Pluronic F-68 and were stored at room temperature for the duration of the experiment each day. The voltage protocol was run and recorded continuously during the experiment. Cells were treated with a vehicle for 3 min (i.e., 0.1% DMSO) followed by three increasing test substance concentrations (0.1, 1, and 10 μM). The test compounds were applied in triplicate at each concentration and tested in at least 2 cells (biological replicates). […]

[13] = system: mature S. aureus biofilm; assay: Disruption of mature biofilm; type: cell-based, Staphylococcus aureus; conditions: preformed 24 h biofilm, Alamar Blue
Experimental: (§2) Diluted bacterial cells were added to 100 μL of test compounds (serially diluted 16 to 0 μg/mL) and incubated for 24 h to assess the biofilm formation inhibition. For the disruption of matured biofilm, diluted cells in 100 μL were added to the 96-well plate and incubated for 24 h with no agitation. […] Biofilm assays were completed in triplicate.

[14] = set-up: method as in Kean et al., 1997; conditions: auranofin-treated patients ref Kean et al., 1997; cited from earlier work
[15] = system: E. faecium ATCC E007; assay: Broth microdilution MIC, E. faecium; type: cell-based, Enterococcus faecium; conditions: E. faecium ATCC E007
Experimental: (§3) In vitro antibiotic susceptibilities were determined using the broth microdilution assay established by the Clinical and Laboratory Standards Institute ([Clinical and Laboratory Standards Institute, 2012]). Broth microdilution assays were carried out with 2 biological replicates, each in triplicate, Mueller–Hinton broth (MHB; BD Biosciences, Franklin Lakes, NJ, USA) with a total assay volume of 100 μL in 96-well plates (BD Biosciences, Franklin Lakes, NJ, USA). Two-fold serial dilutions of compounds were prepared at a range of 0.01– 64 μg/mL in 50 μL of MHB. The initial bacterial inoculum was adjusted to OD600 0.06, 50 μL was, added to the test compounds, and then incubated at 35°C for 18 h. Post incubation, OD600 was measured using a Vmax microplate reader (Molecular Devices, San Jose, CA), and the lowest concentration of test compound that suppressed bacterial growth was reported as the MIC. Broth culture from the MIC assay (10 μL) was plated on Mueller–Hinton agar (BD Biosciences, Franklin Lakes, NJ, USA), and colony-forming units (CFUs) were enumerated after overnight incubation at 37°C.

[16] = system: H. pylori 49503; assay: Broth microdilution MIC, H. pylori; type: cell-based, Helicobacter pylori; conditions: H. pylori 49503
Experimental: as §3

[17] = system: S. aureus MW2 biofilm formation; assay: Biofilm formation inhibition; type: cell-based, Staphylococcus aureus; conditions: 24 h, Alamar Blue
Experimental: as §2

[18] = molecular target: T1, hERG channel
From the text: as §4

[19] = system: S. aureus MW2; assay: Diamide assay (CFU reduction); type: cell-based, Staphylococcus aureus; conditions: compound 0.5 μg/mL + 5 mM diamide, 3 h
Experimental: An overnight culture of S. aureus MW2 was inoculated in tryptic soy broth (TSB) media and grown with agitation. The cells were centrifuged, washed with PBS, and diluted to an OD600 0.4 (10^8 CFU/mL) in PBS. The cells were then treated with auranofin (0.5 µg/mL), AU1 (0.5 µg/mL), AU5 (0.5 µg/mL), and diamide (5 mM and 10 mM) alone or in combinations for 3 h at 37°C. The cells were then serially diluted and plated on tryptic soy agar (TSA) media and incubated at 37°C for 24 h. Colonies that grew on plates were enumerated to determine the effect of the drug and diamide on S. aureus.

[20] = system: intracellular free thiols of S. aureus MW2; assay: Thiol depletion assay; type: cell-based, Staphylococcus aureus; conditions: treated vs untreated cell lysate
Experimental: S. aureus MW2 was treated for 15 min with the indicated (0.125, 0.25, 0.5, or 0.75 µg/mL) concentrations of auranofin, AU1, AU5, or ampicillin. After treatment bacteria were washed twice in PBS and then resuspended in 100 mM potassium phosphate, monobasic, pH 7.4, containing 1 mM ethylenediaminetetraacetic acid to promote lysis. Cells were incubated in the lysis solution for 30 min at 60°C and then vortexed briefly. The solution was centrifuged at 13,000 g for 10 min to collect cell debris. Lysate was collected and 50 μL was transferred to a 96-well plate. Thiols were quantified using the Fluorometric Thiol assay kit following the manufacturer’s instructions (Millipore Sigma, St. Louis, MO, USA). The fluorescence intensity was measured after a 30 min incubation time at λex = 490/λem = 535 nm using a Vmax plate reader.

[21] = system: A. baumannii 17978; assay: Broth microdilution MIC, A. baumannii; type: cell-based, Acinetobacter baumannii; conditions: A. baumannii 17978
Experimental: as §3

[22] = system: P. aeruginosa PA14; assay: Broth microdilution MIC, P. aeruginosa; type: cell-based, Pseudomonas aeruginosa; conditions: P. aeruginosa PA14
Experimental: as §3

[23] = system: Enterobacter (EAE 2625); assay: Broth microdilution MIC, Enterobacter; type: cell-based, Enterobacter spp.; conditions: Enterobacter (EAE 2625)
Experimental: as §3

[24] = system: S. aureus MW2; assay: Broth microdilution MIC, S. aureus MW2; type: cell-based, Staphylococcus aureus; conditions: S. aureus MW2 (MRSA), broth microdilution, 18 h
Experimental: as §3

[25] = system: K. pneumoniae ATCC 77326; assay: Broth microdilution MIC, K. pneumoniae; type: cell-based, Klebsiella pneumonia; conditions: K. pneumoniae ATCC 77326
Experimental: as §3

Sequence of S. aureus TrxR (P66011 whole entry): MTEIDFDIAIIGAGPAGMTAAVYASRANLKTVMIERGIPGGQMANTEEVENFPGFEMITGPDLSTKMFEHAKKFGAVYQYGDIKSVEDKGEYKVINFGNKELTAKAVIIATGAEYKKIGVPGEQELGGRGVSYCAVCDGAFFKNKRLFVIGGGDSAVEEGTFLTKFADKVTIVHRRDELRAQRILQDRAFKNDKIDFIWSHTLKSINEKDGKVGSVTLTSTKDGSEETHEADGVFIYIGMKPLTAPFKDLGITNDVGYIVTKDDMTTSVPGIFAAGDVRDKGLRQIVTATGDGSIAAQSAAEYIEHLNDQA
T1 sequence (Q12809 whole entry): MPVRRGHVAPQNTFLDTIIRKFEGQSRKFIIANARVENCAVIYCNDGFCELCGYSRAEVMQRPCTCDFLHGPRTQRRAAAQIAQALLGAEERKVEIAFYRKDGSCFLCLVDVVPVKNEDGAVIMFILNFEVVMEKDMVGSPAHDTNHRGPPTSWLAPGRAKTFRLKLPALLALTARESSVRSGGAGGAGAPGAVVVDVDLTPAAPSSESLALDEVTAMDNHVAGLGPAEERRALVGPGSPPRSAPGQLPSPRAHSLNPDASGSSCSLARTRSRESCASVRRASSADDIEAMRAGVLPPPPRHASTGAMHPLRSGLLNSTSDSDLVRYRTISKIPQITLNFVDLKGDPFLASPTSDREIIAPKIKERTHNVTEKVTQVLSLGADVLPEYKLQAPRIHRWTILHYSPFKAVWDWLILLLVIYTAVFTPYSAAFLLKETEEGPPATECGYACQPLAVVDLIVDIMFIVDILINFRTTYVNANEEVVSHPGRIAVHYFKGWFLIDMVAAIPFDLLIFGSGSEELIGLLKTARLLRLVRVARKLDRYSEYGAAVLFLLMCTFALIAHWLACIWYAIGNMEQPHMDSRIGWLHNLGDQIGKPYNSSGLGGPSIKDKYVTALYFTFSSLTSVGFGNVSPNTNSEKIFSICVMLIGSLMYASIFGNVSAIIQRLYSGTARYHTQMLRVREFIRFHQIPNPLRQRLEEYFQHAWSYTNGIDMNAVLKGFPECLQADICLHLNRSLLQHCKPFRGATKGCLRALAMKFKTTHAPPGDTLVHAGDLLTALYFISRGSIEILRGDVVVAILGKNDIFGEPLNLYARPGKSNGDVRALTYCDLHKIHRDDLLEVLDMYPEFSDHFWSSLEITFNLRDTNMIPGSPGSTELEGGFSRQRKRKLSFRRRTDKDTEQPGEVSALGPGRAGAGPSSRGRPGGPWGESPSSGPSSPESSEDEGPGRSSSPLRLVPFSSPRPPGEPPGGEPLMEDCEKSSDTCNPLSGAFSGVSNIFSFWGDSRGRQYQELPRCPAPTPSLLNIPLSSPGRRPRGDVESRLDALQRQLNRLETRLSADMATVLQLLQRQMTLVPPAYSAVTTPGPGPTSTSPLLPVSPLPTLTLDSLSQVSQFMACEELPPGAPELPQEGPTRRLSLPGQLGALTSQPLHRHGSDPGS

CC(C)(C)c1ccc([S-])cc1.CCP(CC)CC.[Au+] [AU1]
LD50 [1]: approximately 3 μg/mL
LD50 [2]: 1.5 µg/mL
LD50 as multiple of the MIC [2]: 12 X MIC
solubility at 1 h [3]: ≥ 50 µg/mL
LD50 [4]: approximately 3 μg/mL
LD50 [5]: < 2 µg/mL
LD50 [6]: approximately 4 μg/mL
solubility at 2 h ([7]; PBS, 2 Hour, highest concentration with no detectable precipitate, read-out: Solubility Limit): 3.13 µM
solubility at 2 h ([7]; pbs, read-out: Solubility in PBS converted to mass concentration): 1.49 µg/mL
selectivity ratio at 24 h [8]: 16 to 32
hemolysis (in words) [9]: did not cause hemolysis within the tested range
bactericidal versus bacteriostatic nature (time-to-kill kinetics) [10]: bacteriostatic
IC50 [11]: 0.5 µM
IC50 [12]: > 10 µM

CC(=O)OC[C@H]1O[C@@H]([S-])[C@H](OC(C)=O)[C@@H](OC(C)=O)[C@@H]1OC(C)=O.CCP(CC)CC.[Au+] [Auranofin]
concentration that significantly reduced mature biofilm [13]: 0.125 µg/mL
patients with proteinuria [14]: 5%
LD50 as multiple of the MIC [2]: 6 X MIC
MIC [15]: 0.5 µg/mL
MIC [16]: 0.25 µg/mL
concentration that inhibited biofilm formation (P<0.01) [17]: 0.125 µg/mL
LD50 [4]: approximately 8 μg/mL
IC50 [18]: 9.68 µM
log CFU reduction in combination with diamide [19]: 2.1 log CFU
impact on free thiols (in words) [20]: a reduction was observed
MIC [21]: 32 µg/mL
MIC [22]: >32 µg/mL
MIC [23]: >32 µg/mL
MIC [24]: 0.25 µg/mL
MIC [25]: >32 µg/mL
TrxR enzymatic inhibitory activity (in words) ([11]; DTNB to TNB conversion): Measurable activity reduction
OD420 in TrxR enzymatic assay ([11]; subscreen, after a 30 min incubation period, DMSO 0.483 ± 0.121): 0.295 ± 0.012
